The test system of experiment [1] is carboxylesterase 1, phospholipase A2 and lipoprotein lipase. Kind of experiment: Spiked recombinant enzymes in human plasma with resorufin oleate as substrate. Format: biochemical.
Experiment [2] has as its target T1, MMP2 (Homo sapiens, UniProt P08253).
T1 sequence (P08253 110-660): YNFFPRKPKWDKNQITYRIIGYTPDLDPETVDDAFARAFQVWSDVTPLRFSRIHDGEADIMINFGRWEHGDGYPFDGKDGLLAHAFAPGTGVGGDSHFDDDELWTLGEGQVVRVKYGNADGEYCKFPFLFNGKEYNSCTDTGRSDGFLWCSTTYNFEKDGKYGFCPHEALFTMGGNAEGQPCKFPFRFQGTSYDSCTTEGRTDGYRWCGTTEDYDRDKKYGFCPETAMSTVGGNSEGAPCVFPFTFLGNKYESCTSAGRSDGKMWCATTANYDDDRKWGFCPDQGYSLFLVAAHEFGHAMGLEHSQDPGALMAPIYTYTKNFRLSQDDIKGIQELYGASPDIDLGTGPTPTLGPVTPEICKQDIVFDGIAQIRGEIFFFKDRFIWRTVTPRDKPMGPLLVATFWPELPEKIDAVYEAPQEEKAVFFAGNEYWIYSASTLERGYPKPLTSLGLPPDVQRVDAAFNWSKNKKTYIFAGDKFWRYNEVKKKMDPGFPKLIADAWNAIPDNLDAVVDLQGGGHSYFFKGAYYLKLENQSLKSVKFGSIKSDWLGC
Kind of experiment: Recombinant protease screen of probes. In kind it is biochemical. The note with it: recombinant MMP2, 1 h fluorescence read. Here is the method: (§1) To determine different probes' ability to cleave MMPs and/or DPP4, samples were pipetted into each well in a 384 well plate. […] The plate was centrifuged again, and the plate was then placed into the plate reader for a 1 h fluorescence read.

Another experiment addresses T2, MMP20 (Homo sapiens, UniProt O60882).
T2 sequence (O60882 108-483): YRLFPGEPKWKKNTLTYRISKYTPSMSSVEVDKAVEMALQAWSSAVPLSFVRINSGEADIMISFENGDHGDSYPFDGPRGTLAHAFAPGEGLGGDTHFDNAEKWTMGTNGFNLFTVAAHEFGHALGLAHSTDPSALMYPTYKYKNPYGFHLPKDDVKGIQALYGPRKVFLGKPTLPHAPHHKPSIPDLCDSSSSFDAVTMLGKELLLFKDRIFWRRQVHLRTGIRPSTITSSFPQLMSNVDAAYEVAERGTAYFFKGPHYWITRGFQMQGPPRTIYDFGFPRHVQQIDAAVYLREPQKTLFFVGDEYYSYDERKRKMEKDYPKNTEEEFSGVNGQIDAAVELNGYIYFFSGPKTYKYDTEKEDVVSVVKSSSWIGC
Kind of experiment: Recombinant protease screen of probes. In kind it is biochemical. The note with it: recombinant MMP20, 1 h fluorescence read. Here is the method: as §1

The subject of experiment [3] is MMP protease signal in mouse plasma. The experiment is described as follows: Zinc reactivation of MMPs in mouse plasma, healthy vs NASH. In kind it is biochemical. The note with it: for Fold change ratio, Zinc Buffer: Zinc MMP buffer. The text has this:
To perform this experiment, samples were pipetted into each well of a 384 well plate. […] The plate was kept on ice throughout procedure. […] Then, the place was centrifuged again.
A summary table of the results can be found in Table 4.

A further experiment addresses DPP4 (Homo sapiens, UniProt P27487). Kind of experiment: Recombinant protease screen of probes. In kind it is biochemical. The note with it: recombinant DPP4, 1 h fluorescence read. As to the method: as §1
Experiment [4] has as its system protease activity in COVID and healthy plasma. Kind of experiment: Ex vivo probe assay in COVID and healthy plasma (K2 EDTA and Lithium Heparin). Format: biochemical. As to conditions: K2 EDTA samples.
The subject of a further experiment is MMPs in K2 EDTA plasma. Kind of experiment: Zinc reactivation of MMPs in human K2 EDTA plasma. Format: biochemical. As to conditions: for protease activity recovered by Calcium compared to Zinc: Calcium up to 6 mM vs 1 mM Zinc, plasma. The text has this: In this experiment, MMPs are reactivated in K2 EDTA plasma that has been collected with EDTA. EDTA causes chelation of the […] ion and interferes with the stability of the MMPs and has high MMP inhibition activity in vitro. The goal of zinc addition was to reactivate potential MMPs in solution that have been inhibited due to the addition of K2 EDTA.
To reactivate the MMPs in plasma, the EDTA was completely titrated and bound to the Zinc while the excess zinc in the solution was also used as an activating agent for the MMPs. Zinc chloride (Alfa Aesar) was prepared in ddH2O and fully dissolved. The zinc chloride ([…]) solution was then diluted in an assay buffer designed for MMPs. The plasma samples were prepared in the MMP buffer and the plasma samples were combined with the ZnCl solution in a 3:1 ratio. The mixture was incubated on ice after being combined. While the samples were incubating, the related substrates were prepared for analysis. Substrates used in this experiment were Probes #117, 263, 349, and 417. Samples were added to a substrate of interest once the sample incubation was complete. The mixture was spun, and results were read on a Biotek Synergy H1 at Ex/Em=485/535 using extended dynamic range.

Experiment [5] has as its target T1, MMP2. Kind of experiment: Recombinant MMP2 spike-in to human K2 EDTA plasma with Zinc titration. On the set-up: host or cells: spiked into human K2 EDTA plasma. Format: biochemical.
The subject of experiment [6] is protease activity sensed by Probe #102 (cathepsin L, CTSL) in K2 EDTA plasma. Kind of experiment: Protease inhibitor profiling of Probe #102 cleavage in NASH and healthy plasma. As to conditions: for effect of inhibitor on signal, in words: Probe #102, NASH and healthy plasma.
Procedure: For this experiment, all plasma samples were prepared individually and diluted 1/10e in PBS with inhibitor added directly to the samples. Inhibitor was prepared at 15× concentration to final. Substrates were diluted in DI water at 18 uM, such that the final concentration on the plate would be 6 uM. All samples were prepared such that their last dilution on the plate would not affect the desired final concentration. 10 ul of each individual sample was pipetted into their corresponding wells, and the plate was then spun down in the centrifuge at 1500 RPM for 30 seconds to coat the bottom of each well with the sample. 5 ul of the 18 uM substrate solution was pipetted into each well being used on a 384 well plate, and then the plate was spun down in the centrifuge at 1500 rpm for 30 seconds. The plate was placed immediately in the plate reader at 37° C. for a 30-minute-long fluorescence kinetic read at 485/535 extended gain.
To assess the proteolytic cleavage pattern of Probe #102, samples were tested using a pool of broad inhibitors for serine, cysteine, threonine, MMP and aspartic protease family members (broad inhibitor) to assess general protease activity, AEBSF for serine proteases, E64 for cysteine proteases, CTSi for broad cathepsin inhibition of cathepsins L, S, K and B, or specific inhibitors for cathepsin K (L00625), for cathepsin L (SID) or cathepsin B (CA074).
A further experiment deals with MMP13 (Homo sapiens, UniProt P45452). The experiment is described as follows: Recombinant protease screen of probes. In kind it is biochemical. As to conditions: recombinant MMP13, 1 h fluorescence read. As to the method:
as §1

The test system of experiment [7] is protease (caspase) activity in mouse plasma. The experiment is described as follows: Ex vivo probe assay in plasma of the Jo2 mouse model of fulminant hepatitis. As to conditions: mouse plasma 3 hours after Jo2 injection. Format: biochemical. Here is the method:
Fulminant hepatitis is induced after injection intraperitoneal of monoclonal antibody anti-CD95 (Jo2, BD biosciences, 4 ug/animal), and mouse plasma samples were collected 3 hours after Jo2 injection.
The comparison with mass spectrometry data also aligns and confirms high concordance with the ex vivo approach, which is reassuring to confirm the existence of a biologically relevant signal.

Non-standard residues stand in square brackets, D forms with d. Primed or numbered codes have the meaning given here. No end group written: not given here. *: point of attachment. CPQ2 = fluorescent quencher, paired with 5-carboxyfluorescein; 5FAM = O=C1OC2(c3ccc(O)cc3Oc3cc(O)ccc32)c2ccc(C(=O)*)cc21; FAM = 5-carboxyfluorescein (fluorescent label); PEG2′ = PEG spacer

Chain of DPP4 (P27487 whole entry, species assumed): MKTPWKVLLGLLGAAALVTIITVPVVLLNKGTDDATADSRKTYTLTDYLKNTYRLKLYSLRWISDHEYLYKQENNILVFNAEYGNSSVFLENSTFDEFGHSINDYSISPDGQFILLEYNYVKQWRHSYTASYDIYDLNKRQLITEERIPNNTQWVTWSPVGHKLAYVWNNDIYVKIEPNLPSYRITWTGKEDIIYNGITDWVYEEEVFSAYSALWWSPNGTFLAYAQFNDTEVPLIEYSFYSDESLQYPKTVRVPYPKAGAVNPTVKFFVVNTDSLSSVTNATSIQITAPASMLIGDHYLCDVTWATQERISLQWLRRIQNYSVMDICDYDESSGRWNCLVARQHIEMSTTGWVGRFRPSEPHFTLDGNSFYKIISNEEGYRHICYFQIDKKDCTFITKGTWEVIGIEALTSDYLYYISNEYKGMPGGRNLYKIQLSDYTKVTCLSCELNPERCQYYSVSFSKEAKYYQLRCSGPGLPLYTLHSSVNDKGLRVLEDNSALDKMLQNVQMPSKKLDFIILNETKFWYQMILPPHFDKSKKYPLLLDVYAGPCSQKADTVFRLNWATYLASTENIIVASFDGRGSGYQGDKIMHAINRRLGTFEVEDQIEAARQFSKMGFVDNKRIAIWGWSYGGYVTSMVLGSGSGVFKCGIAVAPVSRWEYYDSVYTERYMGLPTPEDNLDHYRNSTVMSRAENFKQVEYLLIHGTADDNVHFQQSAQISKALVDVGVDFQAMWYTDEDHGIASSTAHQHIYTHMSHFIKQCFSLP

In the case of Resorufin oleate, in experiment [1], the “suitability as substrate for detection of enzymes” value is recorded as “promising for detection of broad range of enzymes”.
As for “Probe #117: probe whose peptide linker is SEQ ID No 117 ({FAM}-GAALHNDGK(CPQ2)[PEG2′][dK][dK]-NH2; also: FAM, CPQ2 quencher, PEG2, D-Lys-D-Lys, amide)”, the “protease sensed by probe” value in the experiment with MMP2 [2] and with MMP20 was “sensed” throughout. For the same compound, the “Fold change ratio, Zinc Buffer” value in experiment [3] worked out at 2.11. Moreover, the “Fold change ratio, Normal Buffer” value in [3] is on record as 1.47.
“Probe #411: probe of Table 1; sensed DPP4 (5FAM-GAAFAGK(CPQ2)[PEG2′][dK][dK]GC; also: 5-FAM, CPQ2 quencher, PEG2, D-Lys-D-Lys-GC)”: the “protease sensed by probe” value in the experiment with DPP4 is reported as “sensed”. For the same compound, in experiment [3], the “Fold change ratio, Zinc Buffer” value was determined as 2.52 and the “Fold change ratio, Normal Buffer” value came out at 1.88.
On to “Probe #409: the SARS CoV2 coronavirus substrate (SARS-COV2 3C protease) (GTSAVLQSGFRKGK; also: 5-FAM, CPQ2 quencher, PEG2-kk-GC)”, for which the “contrast between COVID and healthy samples” value in experiment [4] is “modest contrast”.
In the case of `[Cl-].[Cl-].[Zn+2]` [Zinc, Zinc chloride], the “optimal Zinc concentration” value in the experiment with MMPs in K2 EDTA plasma (across all vendors tested, Probe #349) is recorded as 1 mM. The “activity of recombinant MMP2 spiked into human K2 EDTA plasma” value at MMP2 [5] is listed as “capable of reviving the MMP2 activity in plasma”.
Consider `O=C([O-])CN(CCN(CC(=O)O)CC(=O)O)CC(=O)[O-].[K+].[K+]` [K2 EDTA], for which the “activity of recombinant MMP2 spiked into human K2 EDTA plasma” value at MMP2 [5] is listed as “completely deactivated”.
As for `CCCNC(=O)[C@H]1O[C@@H]1C(=O)N[C@H](C(=O)N1CCC[C@H]1C(=O)O)[C@@H](C)CC` [CA074], the “effect of inhibitor on signal, in words” value in experiment [6] is given as “did not significantly decrease signal”.
`CCCC(=O)O` [butyrate]: the “suitability as substrate for detection of enzymes” value in [1] is “promising for detection of broad range of enzymes”.
Regarding `NCCc1ccc(S(=O)(=O)F)cc1` [AEBSF], the “decrease of signal in NASH samples by inhibitor” value in experiment [6] (Probe #102, NASH plasma) was found to be 65%. For the same compound, the “decrease of signal in healthy samples by inhibitor” value in experiment [6] (Probe #102, healthy plasma) stood at 60%.
On to `CN1CCN(c2nc(-c3ccc(C(=O)NC4(C(=O)NCC#N)CCCCC4)cc3)cs2)CC1` [Probe L006235], for which the “effect of inhibitor on signal, in words” value in experiment [6] is on record as “did not significantly decrease signal”.
For the compound “Probe #263: probe whose peptide linker is SEQ ID No 263 ({FAM}-GQKAAWDGK(CPQ2)-NH2; also: FAM, CPQ2 quencher)”, the “protease sensed by probe” value with MMP13 was “sensed”. Besides, in [3], the “Fold change ratio, Zinc Buffer” value amounted to 2.09 and the “Fold change ratio, Normal Buffer” value is given as 1.7.
Consider “Probe #8: Caspase centric probe (5FAM-GVDVADGK(CPQ2)[PEG2′][dK][dK]GC; also: 5-FAM, CPQ2 quencher, PEG2, D-Lys-D-Lys-GC)”, for which the “contrast between healthy and Jo2 samples” value in [7] is “show contrast that is specific and sensitive to the Jo2 model”.
On the same count and under the same terms, next, “Probe #12: Caspase centric probe (5FAM-GDEVDGK(CPQ2)[PEG2′][dK][dK]GC; also: 5-FAM, CPQ2 quencher, PEG2, D-Lys-D-Lys-GC)”: “show contrast that is specific and sensitive to the Jo2 model”.
In the case of `[Ca]` [Calcium], the “protease activity recovered by Calcium compared to Zinc” value was “minimal protease activity is recovered” in the experiment on MMPs in K2 EDTA plasma and “does not show similar activation effects” in the experiment on MMPs in K2 EDTA plasma (listed as calcium).
On to `CC(C)C[C@H](NC(=O)[C@H]1O[C@@H]1C(=O)O)C(=O)NCCCCN=C(N)N` [Probe E64, E64], for which, in [6], the “effect of inhibitor on signal, in words” value was “decreased NASH signal significantly”.

The values above are taken from patent publication US20250110130A1, “EX VIVO PROTEASE ACTIVATION AND DETECTION” (SunBird Bio, Inc., priority 2021, published 2025).
